Structures can show the parent of a compound that is named as a salt.
system: pMAPKAPK2; assay: Inhibition of p-MAPKAPK2 in vitro (anisomycin-stimulated RAW 264.7 cells, ELISA); assay type: cell-based, murine; conditions: Mus musculus, RAW264.7, p-MAPKAPK2 in vitro, read-out: IC50
Experimental: RAW 264.7 cells (a murine monocytic/macrophage line ATCC) are seeded at a density of 50,000 cells/well in 96-well plates with RPMI-1640 medium plus 10% fetal bovine serum (FBS) and allowed to settle and adhere to the bottom of the well for 48 hours. After reaching confluence, cells are treated for 2 hours with 10 serial dilutions of different compounds. A control compound is always included. After 2 hours, anisomicin (100 ug/ml) is added and cells are incubated for 30 minutes at 37° C. under a 5% CO2 atmosphere. Then, cells are fixed and treated with hydrogen peroxide in order to remove endogenous peroxidase. Finally, plates are blocked with FBS, washed, and an ELISA assay is carried out by using an antiphospho-MAPKAPK2 (Thr 334, Cell Signalling, Cat # 3041) antibody and ahP-Conjugated Secondary Antibody. This reaction is detected by using FEMTO (Pierce) which is an enhanced chemiluminiscent substrate ahP that results in rapid kinetic light output and high signal intensity. The compound exemplified in Example 12 is tested essentially as described above and is found to inhibit the pMAPKAPK2 enzyme production with an IC50 of 7 nM.

IC50 [nM] | SMILES
44 | Cc1ccc(-n2nc(C3(C)CC3)cc2NC(=O)Nc2cnc(N3CCN(C(=O)C4CC4)CC3)c3ccccc23)cc1 [Example 1, 1-[1-(4-Cyclopropanecarbonyl-piperazin-1-yl)-isoquinolin-4-yl]-3-[5-(1-methyl-cyclopropyl)-2-p-tolyl-2H-pyrazol-3-yl]-urea]
25 | Cc1ccc(-n2nc(C3(C)CC3)cc2NC(=O)Nc2cnc(N3CCN(C(=O)c4c(F)cccc4F)CC3)c3ccccc23)cc1 [Example 3, 1-{1-[4-(2,6-Difluoro-benzoyl)-piperazin-1-yl]-isoquinolin-4-yl}-3-[5-(1-methyl-cyclopropyl)-2-p-tolyl-2H-pyrazol-3-yl]-urea]
101 | COC1(c2cc(NC(=O)Nc3cnc(OC4CCN(C(=O)C5(C)CC5)CC4)c4ccccc34)n(-c3ccc(C)cc3)n2)CC1 [Example 9, 1-[5-(1-Methoxy-cyclopropyl)-2-p-tolyl-2H-pyrazol-3-yl]-3-{1-[1-(1-methyl-cyclopropanecarbonyl)-piperidin-4-yloxy]-isoquinolin-4-yl}-urea mesylate]
125 | Cc1ccc(-n2nc(C(C)(C)C)cc2NC(=O)Nc2cnc(OC3CCN(C(N)=O)CC3)c3ccccc23)cc1 [Example 23]

Reference: patent publication US7582638B2, “Pyrazole-isoquinoline urea derivatives as p38 kinase inhibitors” (Eli Lilly and Company, priority 2005, dated 2009)
